# Laboratory results from patent US20150250176A1, “METHOD FOR ENHANCING TOLERANCE TO ABIOTIC STRESS IN PLANTS USING CARBOXAMIDE OR THIOCARBOXAMIDE DERIVATIVES” (BAYER CROPSCIENCE AG, priority 2012, published 2015).
# Tests used:
# [1] = logP determination by HPLC on a reversed-phase column (EEC Directive 79/831 Annex V.A8); conditions: reversed-phase C18 HPLC column
# Protocol: Temperature: 40° C.; Mobile phases: 0.1% aqueous formic acid and acetonitrile; linear gradient from 10% acetonitrile to 90% acetonitrile.
# Calibration was carried out using unbranched alkan-2-ones (comprising 3 to 16 carbon atoms) with known logP values (determination of the logP values by the retention times using linear interpolation between two successive alkanones). lambda-max-values were determined using UV-spectra from 200 nm to 400 nm and the peak values of the chromatographic signals.
# [2] = test system: TRZAS (Triticum aestivum); test: Drought stress test on crop plants, spray application, TRZAS; format: in vivo; conditions: for percent reduction in drought damage at 250 g/ha / pest or weed control at 25 g/ha / pest or weed control at 250 g/ha / percent reduction in drought damage at 25 g/ha: read-out: EF (TRZAS), efficacy = percentage reduction in the intensity of damage; for pest or weed control at 25 g/ha: dosage 25 g/ha
# Protocol: (§1) Seeds of monocotyledonous and dicotyledonous crop plants were placed in sandy loam in wood-fiber pots, covered with soil and cultivated in a greenhouse under good growth conditions. The test plants were treated at the early leaf stage (BBCH10-BBCH13). To ensure uniform water supply before commencement of stress, the potted plants were supplied with the maximum amount of water immediately beforehand by dam irrigation.
# (§2) The inventive compounds, formulated in the form of wettable powders (WP) were sprayed onto the green parts of the plants as an aqueous suspension at an equivalent water application rate of 600 l/ha with addition of 0.2% wetting agent (agrotin). Substance application was followed immediately by stress treatment of the plants, for which the pots were transferred in plastic inserts in order to prevent subsequent, excessively rapid drying.
# (§3) Drought stress was induced by gradual drying out under the following conditions: • “day”: 14 hours with illumination at ˜26° C. • “night”: 10 hours without illumination at ˜18° C.
# (§4) The duration of the respective stress phases was guided mainly by the state of the untreated, stressed control plants and thus varies from crop to crop. It was ended (by re-irrigating or transfer to a greenhouse with good growth conditions) as soon as irreversible damage is observed on the untreated, stressed control plants. In the case of dicotyledonous crops, for example oilseed rape and soya, the duration of the drought stress phase was between 3 and 6 days, in the case of monocotyledonous crops, for example wheat, barley or corn, between 6 and 11 days.
# (§5) The end of the stress phase was followed by an approx. 5-7-day recovery phase, during which the plants were once again kept under good growth conditions in a greenhouse. In order to rule out any influence of the effects observed by any fungicidal action of the test compounds, it was additionally ensured that the tests proceed without fungal infection and without infection pressure.
# (§6) After the recovery phase had ended, the intensities of damage were rated visually compared to untreated, unstressed controls of the same age (in the case of drought stress) or the same growth stage (in the case of cold stress). The intensity of damage was first assessed as a percentage (100% =plants have died, 0% =like control plants). These values were then used to calculate the efficacy of the test compounds (=percentage reduction in the intensity of damage as a result of substance application) by the following formula:
# (§7) [formula] • EF: efficacy (%) • DVus: damage value of the untreated, stressed control • […] with test compound
# (§8) The tables below list mean values in each case from 2 or more independent experiments.
# (§9) Tables A.1 to A.3 show, by way of example, the efficacies of compound of formula (I) as herein defined under drought stress and in conjunction with application to different crop plants, i.e. in table A.1 on application to BRSNS (Brassica napus), in table A.2 on application to TRZAS (Triticum aestivum) and in table A.3 on application to ZEAMX (Zea mays): […]
# [3] = test system: BRSNS (Brassica napus); test: Drought stress test on crop plants, spray application, BRSNS; format: in vivo; conditions: mean of 2 or more experiments
# Protocol: as §1, §2, §3, §4, §5, §6, §7, §8, §9
# [4] = test system: ZEAMX (Zea mays); test: Drought stress test on crop plants, spray application, ZEAMX; format: in vivo; conditions: dosage 250 g/ha, mean of 2 or more experiments
# Protocol: as §1, §2
# Drought stress was induced by gradual drying out under the following conditions: • “day”: 14 hours with illumination at ˜26° C. • “night”: 10 hours without illumination at ˜18° C. […]
# After the recovery phase had ended, the intensities of damage were rated visually compared to untreated, unstressed controls of the same age (in the case of drought stress) or the same growth stage (in the case of cold stress). The intensity of damage was first assessed as a percentage (100% =plants have died, 0% =like control plants). […]
# [5] = drought stress, spray, mean of 2 or more experiments
# [6] = drought stress, dosage 250 g/ha, spray, mean of 2 or more experiments
compound,measurement,setting,value
"CC(C)c1cccc(F)c1CN(C(=O)c1c(C(F)F)nn(C)c1F)C1CC1 [Compound A10, N-cyclopropyl-3-(difluoromethyl)-5-fluoro-N-(2-fluoro-6-isopropylbenzyl)-1-methyl-1H-pyrazole-4-carboxamide]",chromatographic logP,[1],3.65
"Cc1ccc(C(C)(C)C)c(CN(C(=O)c2c(C(F)F)nn(C)c2F)C2CC2)c1 [Compound A14, N-(2-tert-butyl-5-methylbenzyl)-N-cyclopropyl-3-(difluoromethyl)-5-fluoro-1-methyl-1H-pyrazole-4-carboxamide]",percent reduction in drought damage at 250 g/ha,[2],> 5%
same,chromatographic logP,[1],4.36
"CCc1ccc(F)cc1CN(C(=O)c1c(C(F)F)nn(C)c1F)C1CC1 [Compound A6, N-cyclopropyl-3-(difluoromethyl)-N-(2-ethyl-5-fluorobenzyl)-5-fluoro-1-methyl-1H-pyrazole-4-carboxamide]","EF (BRSNS), efficacy = percentage reduction in the intensity of damage",[3]; dosage 25 g/ha,>5%
same,pest or weed control at 25 g/ha,[2]; [5],> 5%
same,pest or weed control at 250 g/ha,[2]; [6],> 5%
same,chromatographic logP,[1],3.41
"Cn1nc(C(F)F)c(C(=O)N(Cc2c(C(F)(F)F)ccc(Cl)c2F)C2CC2)c1F [Compound A18, N-[3-chloro-2-fluoro-6-(trifluoromethyl)benzyl]-N-cyclopropyl-3-(difluoromethyl)-5-fluoro-1-methyl-1H-pyrazole-4-carboxamide]",chromatographic logP,[1],3.62
"Cn1nc(C(F)F)c(C(=O)N(Cc2ccccc2C(C)(C)C)C2CC2)c1F [Compound A3, N-(2-tert-butylbenzyl)-N-cyclopropyl-3-(difluoromethyl)-5-fluoro-1-methyl-1H-pyrazole-4-carboxamide]",percent reduction in drought damage at 25 g/ha,[2],> 5%
same,percent reduction in drought damage at 250 g/ha,[2],> 5%
same,chromatographic logP,[1],4.06
"Cn1nc(C(F)F)c(C(=O)N(Cc2c(Cl)cccc2C(F)(F)F)C2CC2)c1F [Compound A17, N-[2-chloro-6-(trifluoromethyl)benzyl]-N-cyclopropyl-3-(difluoromethyl)-5-fluoro-1-methyl-1H-pyrazole-4-carboxamide]",chromatographic logP,[1],3.46
"Cc1ccc(C(F)(F)F)c(CN(C(=O)c2c(C(F)F)nn(C)c2F)C2CC2)c1 [Compound A16, N-cyclopropyl-3-(difluoromethyl)-5-fluoro-1-methyl-N-[5-methyl-2-(trifluoromethyl)benzyl]-1H-pyrazole-4-carboxamide]",percent reduction in drought damage at 250 g/ha,[2],> 5%
same,chromatographic logP,[1],3.78
"CCc1cc(C)c(C)cc1CN(C(=O)c1c(C(F)F)nn(C)c1F)C1CC1 [Compound A19, N-cyclopropyl-3-(difluoromethyl)-N-(2-ethyl-4,5-dimethylbenzyl)-5-fluoro-1-methyl-1H-pyrazole-4-carboxamide]","EF (BRSNS), efficacy = percentage reduction in the intensity of damage",[3]; dosage 25 g/ha,>5%
same,pest or weed control at 25 g/ha,[2]; [5],> 5%
same,chromatographic logP,[1],4.04
N-cyclopropyl-3-(difluoromethyl)-5-fluoro-N-(2-isopropylbenzyl)-1-methyl-1H-pyrazole-4-carbothio-amide [Compound A20],"EF (TRZAS), efficacy = percentage reduction in the intensity of damage",[2]; [6],>5%
"Cn1nc(C(F)F)c(C(=O)N(Cc2ccccc2C2CC2)C2CC2)c1F [Compound A2, N-cyclopropyl-N-(2-cyclopropylbenzyl)-3-(difluoromethyl)-5-fluoro-1-methyl-1H-pyrazole-4-carboxamide]","EF (BRSNS), efficacy = percentage reduction in the intensity of damage",[3]; dosage 2.5 g/ha,>5%
same,"EF (BRSNS), efficacy = percentage reduction in the intensity of damage",[3]; dosage 25 g/ha,>5%
same,"EF (BRSNS), efficacy = percentage reduction in the intensity of damage",[3]; dosage 250 g/ha,>5%
same,chromatographic logP,[1],3.44
"CC(C)c1ccccc1CN(C(=O)c1c(C(F)F)nn(C)c1F)C1CC1 [Compound A1, N-cyclopropyl-3-(difluoromethyl)-5-fluoro-N-(2-isopropylbenzyl)-1-methyl-1H-pyrazole-4-carboxamide]",chromatographic logP,[1],3.35
"CC(C)c1ccc(F)cc1CN(C(=O)c1c(C(F)F)nn(C)c1F)C1CC1 [Compound A7, N-cyclopropyl-3-(difluoromethyl)-5-fluoro-N-(5-fluoro-2-isopropylbenzyl)-1-methyl-1H-pyrazole-4-carboxamide]","EF (BRSNS), efficacy = percentage reduction in the intensity of damage",[3]; dosage 250 g/ha,>5%
same,chromatographic logP,[1],3.7
"CC(C)c1ccc(Cl)cc1CN(C(=O)c1c(C(F)F)nn(C)c1F)C1CC1 [Compound A5, N-(5-chloro-2-isopropylbenzyl)-N-cyclopropyl-3-(difluoromethyl)-5-fluoro-1-methyl-1H-pyrazole-4-carboxamide]","EF (BRSNS), efficacy = percentage reduction in the intensity of damage",[3]; dosage 25 g/ha,>5%
same,pest or weed control at 25 g/ha,[2]; [5],> 5%
same,pest or weed control at 250 g/ha,[2]; [6],> 5%
same,chromatographic logP,[1],4.09
"Cn1nc(C(F)F)c(C(=O)N(Cc2cc(F)ccc2C2CCCC2)C2CC2)c1F [Compound A9, N-(2-cyclopentyl-5-fluorobenzyl)-N-cyclopropyl-3-(difluoromethyl)-5-fluoro-1-methyl-1H-pyrazole-4-carboxamide]",chromatographic logP,[1],4.21
"CCc1ccc(C)cc1CN(C(=O)c1c(C(F)F)nn(C)c1F)C1CC1 [Compound A11, N-cyclopropyl-3-(difluoromethyl)-N-(2-ethyl-5-methylbenzyl)-5-fluoro-1-methyl-1H-pyrazole-4-carboxamide]",pest or weed control at 25 g/ha,[2]; [5],> 5%
same,chromatographic logP,[1],3.7
"CCc1ccc(Cl)cc1CN(C(=O)c1c(C(F)F)nn(C)c1F)C1CC1 [Compound A4, N-(5-chloro-2-ethylbenzyl)-N-cyclopropyl-3-(difluoromethyl)-5-fluoro-1-methyl-1H-pyrazole-4-carboxamide]",percent reduction in drought damage at 25 g/ha,[2],> 5%
same,chromatographic logP,[1],3.76
"Cn1nc(C(F)F)c(C(=O)N(Cc2cc(Cl)ccc2C(F)(F)F)C2CC2)c1F [Compound A15, N-[5-chloro-2-(trifluoromethyl)benzyl]-N-cyclopropyl-3-(difluoromethyl)-5-fluoro-1-methyl-1H-pyrazole-4-carboxamide]",chromatographic logP,[1],3.8
"Cc1ccc(C(C)C)c(CN(C(=O)c2c(C(F)F)nn(C)c2F)C2CC2)c1 [Compound A12, N-cyclopropyl-3-(difluoromethyl)-5-fluoro-N-(2-isopropyl-5-methylbenzyl)-1-methyl-1H-pyrazole-4-carboxamide]","EF (BRSNS), efficacy = percentage reduction in the intensity of damage",[3]; dosage 2.5 g/ha,>5%
same,"EF (BRSNS), efficacy = percentage reduction in the intensity of damage",[3]; dosage 25 g/ha,>5%
same,"EF (BRSNS), efficacy = percentage reduction in the intensity of damage",[3]; dosage 250 g/ha,>5%
same,chromatographic logP,[1],3.99
"Cn1nc(C(F)F)c(C(=O)N(Cc2cc(F)ccc2C2CC2)C2CC2)c1F [Compound A8, N-cyclopropyl-N-(2-cyclopropyl-5-fluorobenzyl)-3-(difluoromethyl)-5-fluoro-1-methyl-1H-pyrazole-4-carboxamide]","EF (BRSNS), efficacy = percentage reduction in the intensity of damage",[3]; dosage 2.5 g/ha,>5%
same,"EF (ZEAMX), efficacy = percentage reduction in the intensity of damage",[4],>5%
same,chromatographic logP,[1],3.46
"Cc1ccc(C2CC2)c(CN(C(=O)c2c(C(F)F)nn(C)c2F)C2CC2)c1 [Compound A13, N-cyclopropyl-N-(2-cyclopropyl-5-methylbenzyl)-3-(difluoromethyl)-5-fluoro-1-methyl-1H-pyrazole-4-carboxamide]",chromatographic logP,[1],3.76
